In ChEMBL document CHEMBL5046261, “Flavonostilbenes Isolated from the Stems of Rhamnoneuron balansae as Potential SIRT1 Activators” (J Nat Prod, 2022):
The source made the active and inactive calls. No cut-off for these calls is given here.

Assays:
C2C12 [1] = assay: Effect on AMPK in mouse C2C12 myotubes assessed as increase in AMPK-alpha phosphorylation at Thr172 at 1 mM measured after 1 hrs by western blot analysis; type: functional, cell-based
HEK293 = assay: Cytotoxicity against human HEK293 cells assessed as cell viability at 20 uM measured after 24 hrs by MTT assay; type: toxicity, cell-based; settings: hek293, 24 h
C2C12 [2] = assay: Effect on AMPK in mouse C2C12 myotubes assessed as increase in AMPK-alpha phosphorylation at Thr172 at 5 to 10 uM measured after 1 hrs by western blot analysis; type: functional, cell-based; settings: dose 5-10 µM
[3] = biological target: T1, NAD-dependent protein deacetylase sirtuin-1 (Homo sapiens) (UniProt Q96EB6); assay: Activation of SIRT1 (unknown origin) expressed in human HEK293 cells assessed as increase in deacetylase activity from 1.25 to 20 uM measured after 24 hrs by luciferase reporter gene assay; type: cell-based; settings: filed as activator, dose 1.25-20 µM
T1 sequence (whole entry): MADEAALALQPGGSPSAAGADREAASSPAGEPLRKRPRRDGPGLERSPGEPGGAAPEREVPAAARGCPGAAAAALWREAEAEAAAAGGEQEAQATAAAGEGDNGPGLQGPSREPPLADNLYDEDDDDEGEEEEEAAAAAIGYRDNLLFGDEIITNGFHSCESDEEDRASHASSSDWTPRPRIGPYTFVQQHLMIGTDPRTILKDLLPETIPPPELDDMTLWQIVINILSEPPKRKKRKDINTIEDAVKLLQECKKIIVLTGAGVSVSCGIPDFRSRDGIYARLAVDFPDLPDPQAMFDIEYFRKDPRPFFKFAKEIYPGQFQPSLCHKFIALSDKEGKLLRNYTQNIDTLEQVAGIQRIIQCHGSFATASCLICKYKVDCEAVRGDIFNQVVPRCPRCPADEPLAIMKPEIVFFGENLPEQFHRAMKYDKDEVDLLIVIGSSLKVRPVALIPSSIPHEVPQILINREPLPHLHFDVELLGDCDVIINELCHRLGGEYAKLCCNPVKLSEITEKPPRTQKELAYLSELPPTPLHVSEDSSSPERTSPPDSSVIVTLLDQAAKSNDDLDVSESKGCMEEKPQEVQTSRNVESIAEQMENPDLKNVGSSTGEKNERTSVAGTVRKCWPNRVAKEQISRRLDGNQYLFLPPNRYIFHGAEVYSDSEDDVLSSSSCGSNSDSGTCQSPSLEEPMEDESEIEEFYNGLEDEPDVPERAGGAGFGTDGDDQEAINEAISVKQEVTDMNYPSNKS

[4] = biological target: T1, NAD-dependent protein deacetylase sirtuin-1 (Homo sapiens); assay: Activation of SIRT1 (unknown origin) expressed in human HEK293 cells assessed as decrease in luciferase activity at 5 uM measured after 24 hrs by luciferase reporter gene assay; type: cell-based; settings: filed as activator
[5] = biological target: T1, NAD-dependent protein deacetylase sirtuin-1 (Homo sapiens); assay: Activation of SIRT1 (unknown origin) expressed in human HEK293 cells assessed as increase intracellular NAD+ level at 10 uM in presence of NAD+ as substrate incubated for 12 hrs by NAD+/NADH assay based fluorescence microplate reader; type: cell-based; settings: filed as activator
[6] = biological target: T1, NAD-dependent protein deacetylase sirtuin-1 (Homo sapiens); assay: Activation of SIRT1 (unknown origin) expressed in human HEK293 cells assessed as decrease in p53 transcriptional activity at 20 uM measured after 24 hrs by luciferase reporter gene assay; type: cell-based; settings: filed as activator
C2C12 [7] = assay: Cytotoxicity against mouse C2C12 myotubes assessed as cell viability at 10 to 40 uM measured after 24 hrs by MTT assay; type: toxicity, cell-based; settings: c2c12, 24 h, dose 10-40 µM
[8] = biological target: T1, NAD-dependent protein deacetylase sirtuin-1 (Homo sapiens); assay: Activation of SIRT1 (unknown origin) expressed in human HEK293 cells assessed as increase intracellular NAD+ level at 20 uM in presence of NAD+ as substrate incubated for 12 hrs by NAD+/NADH assay based fluorescence microplate reader; type: cell-based; settings: filed as activator
[9] = biological target: T1, NAD-dependent protein deacetylase sirtuin-1 (Homo sapiens); assay: Activation of SIRT1 (unknown origin) expressed in human HEK293 cells assessed as increase in NAD+/NADH ratio at 10 to 40 uM in presence of NAD+ as substrate incubated for 12 hrs by NAD+/NADH assay based fluorescence microplate reader; type: cell-based; settings: filed as activator, dose 10-40 µM
[10] = biological target: T1, NAD-dependent protein deacetylase sirtuin-1 (Homo sapiens); assay: Activation of SIRT1 (unknown origin) expressed in human HEK293 cells assessed as decrease in luciferase activity at 20 uM measured after 24 hrs by luciferase reporter gene assay; type: cell-based; settings: filed as activator

Activity [6]	SMILES	Activity (HEK293)	also measured
–	NC(=O)c1ncn([C@@H]2O[C@H](CO)[C@@H](O)[C@H]2O)c1N	–	Activity (C2C12 [1]): Active
–	O=c1c(O)c(-c2ccc(O)c(O)c2)oc2cc3c(c(O)c12)[C@@H](c1cc(O)cc(O)c1)[C@H](c1ccc(O)cc1)O3	Non-Toxic	–
–	O=c1c(O)c(-c2cc(O)c(O)c(O)c2)oc2c3c(cc(O)c12)O[C@H](c1ccc(O)cc1)[C@H]3c1cc(O)cc(O)c1	Non-Toxic	–
Active	O=C1c2c(O)cc(O)c(-c3cc(/C=C/c4cc(O)cc(O)c4)ccc3O)c2O[C@H](c2ccc(O)cc2)[C@H]1O	Non-Toxic	Activity (C2C12 [2]): Active; Activity [3]: Dose-Dependent Effect; Activity [4]: Active; Activity [5]: Active; Activity (C2C12 [7]): Non-Toxic; Activity [8]: Active
–	Oc1ccc(/C=C/c2cc(O)cc(O)c2)cc1	–	Activity [9]: Dose-Dependent Effect; Activity [10]: Active
Active	O=c1c(O)c(-c2ccc(O)cc2)oc2cc(O)c(-c3cc(/C=C/c4cc(O)cc(O)c4)ccc3O)c(O)c12	Non-Toxic	–
–	O=c1c(O)c(-c2ccc(O)cc2)oc2c3c(cc(O)c12)O[C@@H](c1ccc(O)cc1)[C@H]3c1cc(O)cc(O)c1	Non-Toxic	–
Active	O=C1c2c(cc(O)c(-c3cc(/C=C/c4cc(O)cc(O)c4)ccc3O)c2O)O[C@H](c2ccc(O)c(O)c2)[C@H]1O	Non-Toxic	–
–	O=C1c2c(O)cc3c(c2O[C@@H](c2ccc(O)cc2)[C@@H]1O)[C@H](c1cc(O)cc(O)c1)[C@@H](c1ccc(O)cc1)O3	Non-Toxic	–
Active	O=c1c(O)c(-c2ccc(O)c(O)c2)oc2c(-c3cc(/C=C/c4cc(O)cc(O)c4)ccc3O)c(O)cc(O)c12	Non-Toxic	–
–	O=c1c(O)c(-c2ccc(O)cc2)oc2cc3c(c(O)c12)[C@@H](c1cc(O)cc(O)c1)[C@@H](c1ccc(O)cc1)O3	Non-Toxic	–
Active	O=c1c(O)c(-c2ccc(O)cc2)oc2c(-c3cc(/C=C/c4cc(O)cc(O)c4)ccc3O)c(O)cc(O)c12	Non-Toxic	–
–	O=c1c(O)c(-c2ccc(O)cc2)oc2cc3c(c(O)c12)[C@@H](c1cc(O)cc(O)c1)[C@H](c1ccc(O)cc1)O3	Non-Toxic	–
